{"source": "patent US20170150719A1", "about": "“FUNGICIDAL PYRAZOLES AND THEIR MIXTURES” (E I DU PONT DE NEMOURS AND COMPANY, priority 2010, published 2017)", "key": {"[1]": {"tested_on": "Septoria tritici", "assay": "Test F: wheat leaf blotch, preventive spray on wheat seedlings, visual disease rating", "type": "in vivo", "conditions": "Zymoseptoria tritici, 100 = 100% disease control, 0 = no disease control relative to the controls", "from_the_text": "A hyphen (-) indicates no test results."}, "[2]": {"tested_on": "Puccinia recondita f sp. tritici", "assay": "Test L (L1-L5): wheat leaf rust, Compound 81 alone and in mixtures, observed and Colby expected control", "type": "in vivo", "conditions": "for Test L4 Obsd, disease control rating / Test L5 Obsd, disease control rating: wheat leaf rust"}, "[3]": {"tested_on": "Blumeria graminis f. sp. tritici", "assay": "Test I: wheat powdery mildew, preventive spray on wheat seedlings, visual disease rating", "conditions": "Blumeria graminis, in Triticum aestivum, read-out: Test I rating (disease control), wheat powdery mildew; 100 = 100% disease control, 0 = no disease control relative to the controls"}}, "data": [{"smiles": "Cc1nn(C)c(Nc2c(F)cc(Cl)cc2F)c1-c1ccc(F)cc1Cl", "note": "[Compound 81, N-(4-chloro-2,6-difluorophenyl)-4-(2-chloro-4-fluorophenyl)-1,3-dimethyl-1H-pyrazole-5-amine]", "values": [{"measurement": "pest or weed control at 200 µg/mL", "setting": "[1]", "result": 100, "unit": "%"}, {"measurement": "Test L1 Obsd", "setting": "[2]; Compound 81 1 ppm alone", "result": 88, "unit": "%"}, {"measurement": "Test L2 Obsd", "setting": "[2]; Compound 81 1 ppm alone", "result": 9, "unit": "%"}, {"measurement": "Test L3 Obsd", "setting": "[2]; Compound 81 1 ppm alone", "result": 9, "unit": "%"}, {"measurement": "Test L1 Obsd", "setting": "[2]; Compound 81 2 ppm alone", "result": 68, "unit": "%"}, {"measurement": "Test L2 Obsd", "setting": "[2]; Compound 81 2 ppm alone", "result": 27, "unit": "%"}, {"measurement": "Test L3 Obsd", "setting": "[2]; Compound 81 2 ppm alone", "result": 9, "unit": "%"}, {"measurement": "Test L1 Obsd", "setting": "[2]; Compound 81 5 ppm alone", "result": 91, "unit": "%"}, {"measurement": "Test L2 Obsd", "setting": "[2]; Compound 81 5 ppm alone", "result": 74, "unit": "%"}, {"measurement": "Test L3 Obsd", "setting": "[2]; Compound 81 5 ppm alone", "result": 41, "unit": "%"}, {"measurement": "Test L1 Obsd", "setting": "[2]; Compound 81 10 ppm alone", "result": 98, "unit": "%"}, {"measurement": "Test L2 Obsd", "setting": "[2]; Compound 81 10 ppm alone", "result": 91, "unit": "%"}, {"measurement": "Test L3 Obsd", "setting": "[2]; Compound 81 10 ppm alone", "result": 88, "unit": "%"}, {"measurement": "Test L4 Obsd, disease control rating", "setting": "[2]; Compound 81 1 ppm alone", "result": 0, "unit": "%"}, {"measurement": "Test L5 Obsd, disease control rating", "setting": "[2]; Compound 81 1 ppm alone", "result": 18, "unit": "%"}, {"measurement": "Test L4 Obsd, disease control rating", "setting": "[2]; Compound 81 2 ppm alone", "result": 27, "unit": "%"}, {"measurement": "Test L5 Obsd, disease control rating", "setting": "[2]; Compound 81 2 ppm alone", "result": 27, "unit": "%"}, {"measurement": "Test L4 Obsd, disease control rating", "setting": "[2]; Compound 81 5 ppm alone", "result": 68, "unit": "%"}, {"measurement": "Test L5 Obsd, disease control rating", "setting": "[2]; Compound 81 5 ppm alone", "result": 55, "unit": "%"}, {"measurement": "Test L4 Obsd, disease control rating", "setting": "[2]; Compound 81 10 ppm alone", "result": 88, "unit": "%"}, {"measurement": "Test L5 Obsd, disease control rating", "setting": "[2]; Compound 81 10 ppm alone", "result": 82, "unit": "%"}, {"measurement": "pest or weed control at 200 µg/mL", "setting": "[3]", "result": 100, "unit": "%"}]}]}
